In ChEMBL document CHEMBL5465560, “Selectivity Literature for EUbOPEN Chemogenomic Library” (2024):
One block for each compound: values may come before it.

Legend:
[1] = target: T1, Ephrin type-B receptor 6 (Homo sapiens) (UniProt O15197); assay: Selectivity interaction (KinomeScan (DiscoverX)) EUB0000666a EPHB6; settings: at 10 µM
T1 sequence (whole entry): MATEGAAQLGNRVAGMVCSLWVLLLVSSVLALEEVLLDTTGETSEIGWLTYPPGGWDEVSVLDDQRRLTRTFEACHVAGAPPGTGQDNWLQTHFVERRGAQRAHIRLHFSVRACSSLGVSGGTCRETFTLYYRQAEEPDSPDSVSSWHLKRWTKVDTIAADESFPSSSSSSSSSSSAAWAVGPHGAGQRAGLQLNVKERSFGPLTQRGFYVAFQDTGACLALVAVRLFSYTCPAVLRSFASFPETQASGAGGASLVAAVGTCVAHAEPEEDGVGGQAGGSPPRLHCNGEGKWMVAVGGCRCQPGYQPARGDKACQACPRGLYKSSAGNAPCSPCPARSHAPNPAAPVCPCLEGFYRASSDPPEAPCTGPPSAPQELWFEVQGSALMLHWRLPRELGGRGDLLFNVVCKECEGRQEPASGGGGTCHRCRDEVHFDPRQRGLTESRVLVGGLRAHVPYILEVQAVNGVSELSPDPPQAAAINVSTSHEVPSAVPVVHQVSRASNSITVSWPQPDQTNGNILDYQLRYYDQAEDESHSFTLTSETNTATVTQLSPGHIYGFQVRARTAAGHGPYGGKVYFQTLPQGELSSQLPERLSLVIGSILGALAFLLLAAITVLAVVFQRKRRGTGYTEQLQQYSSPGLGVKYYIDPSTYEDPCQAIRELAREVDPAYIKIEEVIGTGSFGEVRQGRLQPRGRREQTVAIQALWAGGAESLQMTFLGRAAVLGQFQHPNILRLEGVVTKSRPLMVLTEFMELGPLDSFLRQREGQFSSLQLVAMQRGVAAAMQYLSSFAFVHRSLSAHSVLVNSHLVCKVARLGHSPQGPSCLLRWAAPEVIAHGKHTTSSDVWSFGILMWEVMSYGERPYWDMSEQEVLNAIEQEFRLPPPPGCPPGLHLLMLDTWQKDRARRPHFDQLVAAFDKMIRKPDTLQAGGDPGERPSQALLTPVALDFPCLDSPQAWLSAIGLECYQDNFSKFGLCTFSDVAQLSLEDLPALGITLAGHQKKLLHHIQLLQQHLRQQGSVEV

[2] = target: Fibroblast growth factor receptor 4 (Homo sapiens, UniProt P22455); assay: Selectivity interaction (Upstate Kinase Profiler service (Millipore)) EUB0000056c FGFR4; settings: at 1 µM
Chain of Fibroblast growth factor receptor 4 (P22455 22-802 limits assumed): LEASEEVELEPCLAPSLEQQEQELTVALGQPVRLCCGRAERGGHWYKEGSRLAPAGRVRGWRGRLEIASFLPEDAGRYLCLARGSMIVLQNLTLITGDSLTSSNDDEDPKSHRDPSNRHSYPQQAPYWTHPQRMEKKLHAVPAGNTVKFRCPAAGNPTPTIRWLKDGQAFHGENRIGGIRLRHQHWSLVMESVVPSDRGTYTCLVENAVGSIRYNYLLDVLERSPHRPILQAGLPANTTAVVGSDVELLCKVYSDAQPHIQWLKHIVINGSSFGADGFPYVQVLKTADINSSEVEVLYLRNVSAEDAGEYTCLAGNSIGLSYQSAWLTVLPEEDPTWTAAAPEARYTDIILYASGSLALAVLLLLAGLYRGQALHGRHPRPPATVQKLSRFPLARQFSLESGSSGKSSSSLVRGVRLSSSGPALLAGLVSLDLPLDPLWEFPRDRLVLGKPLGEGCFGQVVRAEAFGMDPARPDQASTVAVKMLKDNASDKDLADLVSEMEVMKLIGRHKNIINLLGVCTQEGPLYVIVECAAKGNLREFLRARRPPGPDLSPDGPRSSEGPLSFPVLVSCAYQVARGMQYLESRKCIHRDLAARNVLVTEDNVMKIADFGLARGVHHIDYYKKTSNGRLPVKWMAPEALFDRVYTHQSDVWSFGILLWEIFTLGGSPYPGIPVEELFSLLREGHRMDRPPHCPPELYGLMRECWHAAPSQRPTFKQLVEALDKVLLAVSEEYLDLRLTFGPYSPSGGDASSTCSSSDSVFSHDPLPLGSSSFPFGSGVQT

[3] = target: T2, Serine/threonine-protein kinase Chk1 (Homo sapiens) (UniProt O14757); assay: Selectivity interaction (ActivX KiNativ screen (kinase selectivity in THP-1 cell lysates)) EUB0000639a CHEK1; assay type: subcellular; settings: lysate
T2 sequence (whole entry): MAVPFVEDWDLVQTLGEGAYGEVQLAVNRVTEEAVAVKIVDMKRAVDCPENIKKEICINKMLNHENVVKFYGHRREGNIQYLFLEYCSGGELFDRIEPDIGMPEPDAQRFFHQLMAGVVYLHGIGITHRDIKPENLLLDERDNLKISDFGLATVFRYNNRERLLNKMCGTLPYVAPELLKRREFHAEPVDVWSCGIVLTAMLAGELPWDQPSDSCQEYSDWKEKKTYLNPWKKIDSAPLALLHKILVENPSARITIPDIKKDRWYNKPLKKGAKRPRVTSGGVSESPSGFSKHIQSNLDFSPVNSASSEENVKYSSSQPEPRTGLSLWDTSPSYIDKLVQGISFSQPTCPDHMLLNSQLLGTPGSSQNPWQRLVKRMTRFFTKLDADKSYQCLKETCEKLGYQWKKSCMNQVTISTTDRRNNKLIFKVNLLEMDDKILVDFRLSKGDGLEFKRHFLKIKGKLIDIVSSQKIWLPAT

[4] = target: Casein kinase II subunit alpha (Homo sapiens, UniProt P68400); assay: Selectivity interaction (Ambit KINOMEscan and KiNATiv profiling in Jurkat cells) EUB0000090b CSNK2A1; assay type: cell-based; settings: at 1 µM
Chain of Casein kinase II subunit alpha (P68400 whole entry, looked up): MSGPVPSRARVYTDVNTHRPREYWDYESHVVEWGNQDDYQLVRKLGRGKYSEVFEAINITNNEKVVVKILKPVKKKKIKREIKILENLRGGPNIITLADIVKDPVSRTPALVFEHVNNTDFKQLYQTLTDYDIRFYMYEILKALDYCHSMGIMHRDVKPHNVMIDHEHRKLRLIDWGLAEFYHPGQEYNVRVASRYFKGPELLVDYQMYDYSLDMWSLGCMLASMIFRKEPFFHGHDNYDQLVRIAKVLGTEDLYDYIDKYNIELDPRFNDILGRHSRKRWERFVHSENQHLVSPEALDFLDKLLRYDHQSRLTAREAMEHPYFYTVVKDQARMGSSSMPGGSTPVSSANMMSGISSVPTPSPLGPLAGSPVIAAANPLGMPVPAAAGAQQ

[5] = target: Macrophage colony-stimulating factor 1 receptor (Homo sapiens) (UniProt P07333); assay: Selectivity interaction (Ambit KINOMEscan and KiNATiv profiling in Jurkat cells) EUB0000090b CSF1R; assay type: cell-based; settings: at 1 µM
Chain of Macrophage colony-stimulating factor 1 receptor (Homo sapiens) (P07333 whole entry): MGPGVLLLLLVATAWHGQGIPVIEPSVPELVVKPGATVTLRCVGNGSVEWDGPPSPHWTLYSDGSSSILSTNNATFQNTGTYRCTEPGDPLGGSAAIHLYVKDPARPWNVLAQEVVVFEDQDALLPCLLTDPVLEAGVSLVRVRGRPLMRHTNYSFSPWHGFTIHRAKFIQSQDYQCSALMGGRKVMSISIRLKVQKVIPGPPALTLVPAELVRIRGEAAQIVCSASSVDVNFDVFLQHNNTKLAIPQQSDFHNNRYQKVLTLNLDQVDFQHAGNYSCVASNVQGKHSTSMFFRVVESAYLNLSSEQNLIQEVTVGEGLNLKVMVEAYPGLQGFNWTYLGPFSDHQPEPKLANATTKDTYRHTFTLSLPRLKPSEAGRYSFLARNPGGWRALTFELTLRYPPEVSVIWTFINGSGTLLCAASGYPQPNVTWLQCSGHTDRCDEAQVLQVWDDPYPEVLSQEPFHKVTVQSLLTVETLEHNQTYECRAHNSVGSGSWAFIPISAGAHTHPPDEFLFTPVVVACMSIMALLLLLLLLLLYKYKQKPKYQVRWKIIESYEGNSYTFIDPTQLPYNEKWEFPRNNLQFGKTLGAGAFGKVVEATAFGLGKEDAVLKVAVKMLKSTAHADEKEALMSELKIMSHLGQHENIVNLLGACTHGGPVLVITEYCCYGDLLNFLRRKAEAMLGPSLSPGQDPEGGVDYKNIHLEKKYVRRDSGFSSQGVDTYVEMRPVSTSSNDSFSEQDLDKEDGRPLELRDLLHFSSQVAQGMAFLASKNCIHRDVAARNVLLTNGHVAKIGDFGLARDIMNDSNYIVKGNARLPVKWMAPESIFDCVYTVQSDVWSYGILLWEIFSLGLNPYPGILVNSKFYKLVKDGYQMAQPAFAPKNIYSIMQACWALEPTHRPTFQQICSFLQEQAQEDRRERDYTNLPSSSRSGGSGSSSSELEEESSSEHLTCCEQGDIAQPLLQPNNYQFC

[6] = target: T3, Ephrin type-B receptor 2 (Homo sapiens) (UniProt P29323); assay: Selectivity interaction (KinomeScan (DiscoverX)) EUB0001079a EPHB2; settings: at 1 µM
T3 sequence (whole entry): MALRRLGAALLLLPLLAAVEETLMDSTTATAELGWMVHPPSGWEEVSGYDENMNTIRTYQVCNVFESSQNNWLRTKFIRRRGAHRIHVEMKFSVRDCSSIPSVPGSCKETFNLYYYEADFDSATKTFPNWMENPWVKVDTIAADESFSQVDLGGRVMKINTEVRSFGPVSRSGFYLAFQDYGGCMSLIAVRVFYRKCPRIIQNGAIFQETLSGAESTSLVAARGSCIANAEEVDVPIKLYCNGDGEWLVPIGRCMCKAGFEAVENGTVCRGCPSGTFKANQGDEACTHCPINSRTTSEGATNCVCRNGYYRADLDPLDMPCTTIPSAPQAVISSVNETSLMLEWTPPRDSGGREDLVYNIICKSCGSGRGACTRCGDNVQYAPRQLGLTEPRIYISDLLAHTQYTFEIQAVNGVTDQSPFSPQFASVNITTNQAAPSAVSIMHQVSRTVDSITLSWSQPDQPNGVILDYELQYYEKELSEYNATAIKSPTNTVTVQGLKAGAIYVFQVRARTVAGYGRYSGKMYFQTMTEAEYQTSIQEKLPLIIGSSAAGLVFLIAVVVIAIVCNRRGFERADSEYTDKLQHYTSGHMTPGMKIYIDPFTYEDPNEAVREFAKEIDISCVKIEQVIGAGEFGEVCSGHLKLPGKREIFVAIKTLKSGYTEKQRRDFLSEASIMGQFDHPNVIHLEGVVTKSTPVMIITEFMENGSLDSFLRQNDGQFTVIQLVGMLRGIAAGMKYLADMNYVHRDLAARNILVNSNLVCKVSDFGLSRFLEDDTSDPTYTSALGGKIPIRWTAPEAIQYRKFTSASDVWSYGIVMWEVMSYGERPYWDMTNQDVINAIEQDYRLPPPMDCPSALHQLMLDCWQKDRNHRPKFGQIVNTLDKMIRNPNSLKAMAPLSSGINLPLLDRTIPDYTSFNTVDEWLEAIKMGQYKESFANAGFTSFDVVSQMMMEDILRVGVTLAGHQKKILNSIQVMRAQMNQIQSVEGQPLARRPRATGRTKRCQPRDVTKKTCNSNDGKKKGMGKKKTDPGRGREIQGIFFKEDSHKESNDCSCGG

[7] = target: Myosin light chain kinase, smooth muscle (Homo sapiens, UniProt Q15746); assay: Selectivity interaction (KinomeScan (DiscoverX)) EUB0000618a MYLK; settings: at 10 µM
Chain of Myosin light chain kinase, smooth muscle (Q15746 whole entry): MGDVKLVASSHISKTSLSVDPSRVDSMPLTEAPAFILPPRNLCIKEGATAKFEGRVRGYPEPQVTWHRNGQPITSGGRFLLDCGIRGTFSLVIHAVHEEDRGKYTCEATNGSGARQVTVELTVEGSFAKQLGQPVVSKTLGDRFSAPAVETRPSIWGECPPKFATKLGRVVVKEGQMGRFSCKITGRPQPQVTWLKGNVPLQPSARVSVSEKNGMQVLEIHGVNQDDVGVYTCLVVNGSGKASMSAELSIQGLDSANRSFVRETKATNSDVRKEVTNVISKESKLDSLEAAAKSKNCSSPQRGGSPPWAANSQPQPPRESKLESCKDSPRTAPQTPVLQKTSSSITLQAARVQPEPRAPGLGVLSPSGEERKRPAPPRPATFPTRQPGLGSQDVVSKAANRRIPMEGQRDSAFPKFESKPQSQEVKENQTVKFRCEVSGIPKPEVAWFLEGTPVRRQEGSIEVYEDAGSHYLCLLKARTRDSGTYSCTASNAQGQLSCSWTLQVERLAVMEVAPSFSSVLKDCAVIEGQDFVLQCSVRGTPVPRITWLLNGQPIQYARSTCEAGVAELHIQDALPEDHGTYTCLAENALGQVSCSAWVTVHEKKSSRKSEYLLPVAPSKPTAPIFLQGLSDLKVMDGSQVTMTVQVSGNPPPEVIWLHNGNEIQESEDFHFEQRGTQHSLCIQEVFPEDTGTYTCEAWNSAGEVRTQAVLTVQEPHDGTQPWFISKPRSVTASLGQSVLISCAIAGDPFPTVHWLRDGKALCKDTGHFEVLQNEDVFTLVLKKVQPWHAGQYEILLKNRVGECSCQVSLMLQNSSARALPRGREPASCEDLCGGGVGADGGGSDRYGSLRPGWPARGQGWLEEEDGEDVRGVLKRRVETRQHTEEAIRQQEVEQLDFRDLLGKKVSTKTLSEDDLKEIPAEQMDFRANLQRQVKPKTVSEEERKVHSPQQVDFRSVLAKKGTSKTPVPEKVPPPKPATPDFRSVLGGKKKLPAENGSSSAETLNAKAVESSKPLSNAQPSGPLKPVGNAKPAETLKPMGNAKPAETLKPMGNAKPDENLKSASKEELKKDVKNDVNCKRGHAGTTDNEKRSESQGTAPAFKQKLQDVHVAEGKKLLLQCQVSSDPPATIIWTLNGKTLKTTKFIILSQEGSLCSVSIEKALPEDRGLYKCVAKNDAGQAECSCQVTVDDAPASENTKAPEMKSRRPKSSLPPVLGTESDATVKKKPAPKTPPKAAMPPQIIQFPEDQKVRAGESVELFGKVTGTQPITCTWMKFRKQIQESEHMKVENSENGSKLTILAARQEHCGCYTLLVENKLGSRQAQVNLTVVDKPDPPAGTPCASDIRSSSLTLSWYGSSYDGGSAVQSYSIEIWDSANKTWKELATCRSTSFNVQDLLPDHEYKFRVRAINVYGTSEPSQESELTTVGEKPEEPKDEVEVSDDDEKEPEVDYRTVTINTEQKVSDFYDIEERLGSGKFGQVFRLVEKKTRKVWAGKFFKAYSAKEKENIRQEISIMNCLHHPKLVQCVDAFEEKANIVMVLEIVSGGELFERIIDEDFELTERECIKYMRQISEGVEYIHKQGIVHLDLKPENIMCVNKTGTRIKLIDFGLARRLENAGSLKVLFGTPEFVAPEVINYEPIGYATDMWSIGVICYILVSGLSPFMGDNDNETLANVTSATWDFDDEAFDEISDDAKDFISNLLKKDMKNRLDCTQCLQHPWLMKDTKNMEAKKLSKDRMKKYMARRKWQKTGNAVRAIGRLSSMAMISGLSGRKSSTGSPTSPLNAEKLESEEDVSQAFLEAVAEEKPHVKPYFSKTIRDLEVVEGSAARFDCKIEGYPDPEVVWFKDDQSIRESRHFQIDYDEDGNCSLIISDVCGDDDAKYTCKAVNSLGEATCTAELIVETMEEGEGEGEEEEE

SMILES: O=C(NOC[C@H](O)CO)c1ccc(F)c(F)c1Nc1ccc(I)cc1F
% of control [1]: 87%

% of inhibition [2]: 8%
SMILES: Cc1ccc(-c2ccc3c(ccc4sc5c(c43)NC[C@@H](C)NC5=O)n2)cn1

% of inhibition ([3]; at 0.01 µM): -7.6% | % of inhibition ([3]; at 0.04 µM): 11.8% | % of inhibition ([3]; at 0.2 µM): -8.5% | % of inhibition ([3]; at 1 µM): 0.6% | % of inhibition ([3]; at 5 µM): -18.5%
SMILES: CC[C@@H]1[C@H](F)C(=O)N[C@@H]1COc1nccc2cc(C(N)=O)c(OC)cc12 [ZIMLOVISERTIB]

SMILES: CN(C)C/C=C/C(=O)Nc1ccc(C(=O)N2CCCC(Nc3ncc(Cl)c(-c4c[nH]c5ccccc45)n3)C2)cc1 (stereo unspecified)
% of control [4]: 78% | % of control [5]: 86%

SMILES: Nc1cnc(N2CCc3cc(S(=O)(=O)Nc4c(F)cc(Cl)cc4F)cc(N4CCCC4=O)c32)nc1 [TP-020n]
% of control [6]: 87%

SMILES: O[C@H]1CC[C@H](Nc2ncc3nc(Nc4c(F)cc(F)cc4F)n([C@H]4CCOC4)c3n2)CC1
% of control [7]: 94%
